# In patent US10821123B2, “Use of ribose for treatment of subjects having congestive heart failure” (priority 2016, dated 2020):
# Experiments:
# [1] = system: mice with chronic pressure overload (ascending aortic constriction); assay: Mouse model of chronic pressure overload (ascending aortic constriction), myocardial remodeling; format: in vivo
# Text: This remodeling effect was manifested by lower left ventricular dimensions, lower ventricular wall thicknesses, and greater fractional shortening values compared to untreated controls. […] The study consisted of two ribose treated groups (high and low dose) with the high dose treated group responding better than the low dose group compared to untreated controls. The high dose provided D-ribose exposures that were 4-fold greater than observed in the low dose group providing evidence of a dose effect. The once daily, subcutaneous administration of D-ribose was intended to mimic once daily oral dosing in humans. […] Mice were subjected to ascending aortic constriction (AAC) leading to LV hypertrophy followed by severe LV systolic dysfunction and associated heart failure. In this situation, mitochondrial ATP synthesis is reduced and ROS production is increased in association with advancing heart failure. Reduced ATP levels can contribute to progressive loss of cardiac function from increasing energy deficit. Increased ROS can result in oxidation of critical enzymes and a diminished reducing environment, leading to apoptosis and fibrosis, which are aspects of cardiac remodeling. Mice were divided into four groups; Sham controls (same thoracic surgery with no constriction), AAC untreated, and AAC D-ribose treated (high and low dose). D-ribose for injection (5% to 50% weight/volume) was administered at a dose of 25 to 500 mg/kg body weight by subcutaneous or intraperitoneal injection one to four times daily. After initiation of D-ribose treatment, animals in all groups were monitored for progressive heart failure using echocardiography. LV volumes, fractional shortening, and LV wall thicknesses were measured at 10 and 15 weeks. When LV dilation and fractional shortening were sufficiently advanced, animals were subjected to physical function testing using a motorized treadmill. Animals were allowed to recover for one week and their hearts were harvested and evaluated histologically for myocyte hypertrophy and fibrosis.
# [2] = Safety, tolerability and pharmacokinetics of multiple oral doses of D-ribose solution in subjects with stable chronic heart failure; format: in vivo, human
# Protocol: Although a morning oral dose of D-ribose (overnight fasting) produced significant blood plasma levels, the mid-day and evening doses produced diminished blood levels similar to that observed in healthy subjects given food immediately prior to dosing, even though D-ribose administration to subjects with stable congestive heart failure occurred over 2 hours after their previous meal.
# The safety, tolerability, pharmacokinetics and pharmacodynamics of multiple oral doses of D-ribose solution was studied in 14 subjects with stable, chronic heart failure. It is well known that bolus oral D-ribose can induce a dose-dependent transient hypoglycemia that is preceeded by a transient spike in insulin levels. This can result in symptomatic hypoglycemia in subjects whose blood glucose levels fall sufficiently far. This transient hypoglycemia is the dose limiting side effect of D-ribose treatment, although it is readily overcome by drinking a glass of fruit juice. For this reason, subjects were initially administered a 10 g dose, fasted, followed 5 hours later by a 5 g dose at least 2.5 hours after the end of the previous meal. Subjects that tolerated the 10 g dose completed the remainder of the study at the 10 g dose. […] All subjects tolerated the 10 g dose, so the remainder of the study was conducted using the 10 g dose only. For the next two days, subjects were administered 10 g of D-ribose solution three times daily at 5 hour intervals beginning with a fasted morning dose around 7 a.m. Meals were served two hours after each dose such that the second and third daily doses were administered approximately 2.5 hours after completion of the previous meal. On the third day of dosing, subjects were administered a single dose of chewable tablets containing 16 g of glucose at 0, 30, and 60 minutes post-dose according to a predefined randomization schedule. The purpose of this was to determine whether glucose could attenuate any symptomatic hypoglycemia (if observed), or if it would impact the rate or extent of D-ribose absorption into the blood. Blood levels of D-ribose and insulin were determined at pre-defined time points throughout the study. Blood glucose levels were monitored continuously throughout the study. Four major outcomes emerged from this study. […] This phenomenon was not observed in normal subjects and appears unique to heart failure patients. Lastly, supplemental glucose administered between 0 and 60 minutes post-dose had no effect on D-ribose absorption into the blood.
# [3] = system: dogs with pacing-induced heart failure; assay: Canine model of heart failure induced by chronic cardiac pacing, longevity; format: in vivo
# Text: It has been shown that administration of D-ribose can improve cardiac function in animal models of heart failure. […] Animals treated with once daily, oral D-ribose at a weight equivalent dose of 10 g in a 70 kg human lived 40% longer than placebo animals. It has been hypothesized that D-ribose helps retain cardiac function by maintaining the adenylate pool in cardiomyocytes that are overworked due to underlying heart disease. Supplemental D-ribose can bypass the cell's need to synthesize D-ribose via the pentose phosphate shunt, which can be a rate limiting step to synthesis of ATP in cardiomyocytes by either the salvage or de novo pathways. It has been shown in several studies that D-ribose can enhance the rate of recovery of ATP and other constituents of the adenylate pool in the hearts of animals subjected to hypoxic stress. However, there may be additional benefits to D-ribose treatment in subjects suffering from diminished mitochondrial function in disease states such as coronary artery disease, ischemic heart disease, dilated cardiomyopathy, or other conditions leading to heart failure.
# Dogs were surgically implanted with a cardiac pacing device used to induce heart failure through chronic cardiac pacing. In addition, an aortic catheter, coronary sinus catheter (for blood sampling), left ventricular catheter and pressure transducer, left ventricular piezoelectric crystals, and a transonic flow probe in the left circumflex coronary artery were implanted to measure a variety of hemodynamic parameters and to sample coronary venous blood. Subsequent to recovery from surgery, animals were paced for 3 weeks at a rate of 210 beats per minute (bpm) followed by an increased rate of 350 bpm which continued until the animals were deemed to be terminal. Hemodynamic and metabolic measurements were made on a scheduled basis throughout the pacing period. Dogs were treated with 150 mg/kg D-ribose solution orally either once daily (fasted) or three times daily. Placebo dogs were given an equivalent volume of water. D-ribose treatment started 10 days following the start of pacing and continued until the animal was deemed to be terminal. […] However, one significant difference was how long the D-ribose treated animals lived. Dogs treated once daily lived an average of 38.3 days versus 27.3 days for placebo animals (p<0.03). Furthermore, although the group of dogs treated three times daily (tid) with D-ribose consisted of fewer animals than the group of dogs treated once daily, the tid group lived on average 30.5 days, which was not statistically different than placebo animals (p>0.20). […]
# [4] = system: patients with NYHA Class II to IV heart failure; assay: Functional improvement in patients with NYHA Class II to IV heart failure taking D-ribose; format: in vivo, human; details: 10 to 50 g oral once daily fasted
# Protocol: (§1) Oral D-ribose powder for solution is administered at a dose of 10 to 50 grams per dose, once daily, fasted (e.g., 3 hours, 4, hours, 5 hours, 6 hours, 7 hours, 8 hours, 9 hours, 10 hours, 11 hours, 12 hours, or more). D-ribose powder for solution is dissolved in 50 to 250 mL of water or clear beverage and is consumed within a 15 to 60 minute period. It is preferred that D-ribose be administered to patients that are fasted. Patients are administered D-ribose for a period of at least two weeks, but possibly for the remainder of their lives.
# [5] = system: patients with NYHA Class II to IV heart failure; assay: Remodeling effects in patients with NYHA Class II to IV heart failure taking D-ribose; format: in vivo, human; details: 10 to 50 g oral once daily fasted, within 3 months to one year
# Protocol: as §1, with “and” for “and is”, “administered” for “administered to patients that are”, “weeks” for “weeks,”, “lives. Within a period of 3 months to one year, in at least some embodiments, patients taking D-ribose may have a lower Left Ventricular Systolic Volume Index ([…]), a lower Left Ventricular Diastolic Volume Index ([…]), higher Ejection Fractions (EF), higher dP/dtmax values, lower dP/dtmin values, and/or higher cardiac output than patients taking placebo.” for “lives.”
# [6] = system: patients with acute decompensated heart failure; assay: Dyspnea and/or edema in patients hospitalized for acutely decompensated heart failure; format: in vivo, human; details: 10 to 50 g oral once daily fasted
# Protocol: Patients admitted to the hospital for acute decompensated heart failure may be given oral D-ribose powder for solution at a dose of 10 to 50 grams per dose, once daily, fasted (e.g., 3 hours, 4, hours, 5 hours, 6 hours, 7 hours, 8 hours, 9 hours, 10 hours, 11 hours, 12 hours, or more). D-ribose powder for solution is dissolved in 50 to 250 mL (preferably 50 mL in this case) of water or clear beverage and consumed within a 15 to 60 minute period. It is preferred that D-ribose be administered to patients that are fasted. Patients are treated until symptoms of dyspnea and fluid overload have stabilized.
# [7] = healthy subjects, oral; cited from earlier work
# [8] = high dose AAC D-ribose treated vs AAC control mice, p<0.05
# [9] = low dose AAC D-ribose treated vs AAC controls, not statistically significant
smiles,measurement,setting,value
O=C[C@H](O)[C@H](O)[C@H](O)CO [D-ribose],heart weights,[1]; D-ribose treated animals vs untreated controls,heart weights were greater in untreated controls than D-ribose treated animals
same,fibrosis by differential staining (tissue sections),[1]; [8],significantly less fibrosis
same,myocyte diameters (tissue sections),[1]; [8],significantly smaller
same,left ventricular fractional shortening (echocardiography),"[1]; high dose AAC D-ribose treated vs AAC controls, p<0.01",significantly lower degree of remodeling
same,left ventricular dimensions (echocardiography),"[1]; high dose AAC D-ribose treated vs AAC controls, p<0.01 at systole, p=0.01 at diastole",significantly lower degree of remodeling
same,total wall thickness (echocardiography),"[1]; high dose AAC D-ribose treated vs AAC controls, p<0.03",significantly lower degree of remodeling
same,left ventricular dimensions (echocardiography),[1]; [9],numerical improvements
same,left ventricular fractional shortening (echocardiography),[1]; [9],numerical improvements
same,total wall thickness (echocardiography),"[1]; low dose AAC D-ribose treated vs AAC controls, p<0.04",statistically significant
same,"D-ribose exposure, high dose relative to low dose group","[1]; mice, once daily subcutaneous dose",4 fold
same,episodes of symptomatic hypoglycemia,"[2]; 10 g bolus oral dose, even with fasted doses",no episodes of symptomatic hypoglycemia
same,tolerability,"[2]; 10 g bolus oral dose, subjects with stable chronic heart failure",well tolerated
same,effect of supplemental glucose on D-ribose absorption into the blood,"[2]; 16 g glucose chewable tablets at 0, 30 or 60 minutes post-dose",no effect
same,share of non-fasted doses with blood levels less than 15% of a 10 g fasted dose,[2]; oral 10 g mid-day and evening doses,30%
same,blood levels from mid-day and evening doses relative to 10 g fasted morning dose,"[2]; oral 10 g, approximately 2.5 hours after previous meal",roughly 40%
same,"mean blood level exposure of mid-day 5 g dose, lower than 10 g fasted morning dose","[2]; oral, 5 g mid-day dose at least 2.5 hours after previous meal vs 10 g fasted morning dose",30 fold
same,hemodynamics or other metabolic measures vs placebo,[3]; 150 mg/kg oral D-ribose treated dogs,no significant differences
same,average survival time,"[3]; 150 mg/kg oral once daily (fasted), p<0.03 vs placebo (27.3 days)",38.3 days
same,average survival time,"[3]; 150 mg/kg oral three times daily (tid), p>0.20 vs placebo, not statistically different",30.5 days
same,longer life than placebo animals,[3]; once daily oral dose equivalent to 10 g in a 70 kg human,40%
same,sub-maximal (Six Minute Walk Test) or maximal (CPX) exercise capacity,[4],may exhibit improved sub-maximal exercise capacity
same,"assessments of fatigue, dyspnea, edema, Global Clinical Status and other outcomes","[4]; within 3 months to one year, vs patients not taking D-ribose",may show improved assessments
same,"LVESVI, LVEDVI, EF, dP/dtmax, dP/dtmin, cardiac output vs placebo",[5],may have a lower Left Ventricular Systolic Volume Index (LVESVI)
same,symptoms of dyspnea vs patients taking diuretics only,[6],may exhibit reduced symptoms of dyspnea within a significantly shorter timeframe
same,absorption relative to metabolism,[7],absorbed faster than it is metabolized
same,blood levels after administration immediately following meals vs after fasting,[7],greatly reduced
same,dose proportionality of blood levels,[7],increase more than proportionally with increasing dose
